Tests used:
[1] = molecular target: T1, Beta-1 adrenergic receptor (Cavia porcellus, UniProt B0FL73); test: (§1) Inhibitory activity against Beta-1 adrenergic receptor in guinea pig atria after treatment with the compound
[2] = molecular target: T2, Beta-2 adrenergic receptor (Cavia porcellus, UniProt Q8K4Z4); test: Agonist activity at Beta-2 adrenergic receptor in guinea pig trachea after treatment with the compound
[3] = molecular target: Beta-1 adrenergic receptor (Cavia porcellus) (UniProt B0FL73); test: Maximum response of drug relative to the response of 10e-5 isoproterenol after treatment with the compound; type: functional
Homo sapiens = organism: Homo sapiens; test: (§2) Potency ratio was measured as EC50 (trimetoquinol )/EC50 (drug); type: functional
Rattus norvegicus = organism: Rattus norvegicus; test: as §2; type: functional
[4] = molecular target: T3, Thromboxane A2 receptor (Rattus norvegicus) (UniProt P34978); test: (§3) Inhibitory activity against […]-mediated contraction of rat thoracic aorta (Thromboxane A2 tau receptor); type: tissue-based
T3 sequence (whole entry): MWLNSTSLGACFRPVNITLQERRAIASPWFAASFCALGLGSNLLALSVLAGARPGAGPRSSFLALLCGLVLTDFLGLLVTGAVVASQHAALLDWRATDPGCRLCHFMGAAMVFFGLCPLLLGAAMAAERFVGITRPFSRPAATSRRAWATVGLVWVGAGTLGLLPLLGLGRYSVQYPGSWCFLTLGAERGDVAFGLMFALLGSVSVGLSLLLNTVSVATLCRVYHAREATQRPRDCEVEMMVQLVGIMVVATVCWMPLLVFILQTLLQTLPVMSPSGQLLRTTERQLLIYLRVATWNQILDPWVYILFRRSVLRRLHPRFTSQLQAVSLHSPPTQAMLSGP

[5] = molecular target: Beta-1 adrenergic receptor (Cavia porcellus) (UniProt B0FL73); test: as §1
[6] = molecular target: T1, Beta-1 adrenergic receptor; test: Binding affinity against Beta-1 adrenergic receptor in guinea pig left ventricle
[7] = molecular target: T2, Beta-2 adrenergic receptor; test: Binding affinity against Beta-2 adrenergic receptor in guinea pig lung membranes; type: cell membranes, Membrane
[8] = molecular target: T3, Thromboxane A2 receptor (Rattus norvegicus); test: as §3; type: functional, tissue-based

T2 sequence (Q8K4Z4 whole entry): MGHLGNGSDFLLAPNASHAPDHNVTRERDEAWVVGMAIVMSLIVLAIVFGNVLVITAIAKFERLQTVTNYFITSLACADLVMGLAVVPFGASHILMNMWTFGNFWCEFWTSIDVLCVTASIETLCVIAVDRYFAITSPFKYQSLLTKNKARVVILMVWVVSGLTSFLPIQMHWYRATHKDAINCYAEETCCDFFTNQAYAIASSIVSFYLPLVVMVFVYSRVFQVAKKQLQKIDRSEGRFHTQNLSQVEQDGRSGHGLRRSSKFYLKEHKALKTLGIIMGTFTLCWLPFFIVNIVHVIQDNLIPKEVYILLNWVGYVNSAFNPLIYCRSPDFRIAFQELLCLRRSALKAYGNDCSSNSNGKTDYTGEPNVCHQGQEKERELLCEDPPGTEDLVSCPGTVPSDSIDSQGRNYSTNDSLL
Beta-1 adrenergic receptor (Cavia porcellus), sequence (B0FL73 1-467): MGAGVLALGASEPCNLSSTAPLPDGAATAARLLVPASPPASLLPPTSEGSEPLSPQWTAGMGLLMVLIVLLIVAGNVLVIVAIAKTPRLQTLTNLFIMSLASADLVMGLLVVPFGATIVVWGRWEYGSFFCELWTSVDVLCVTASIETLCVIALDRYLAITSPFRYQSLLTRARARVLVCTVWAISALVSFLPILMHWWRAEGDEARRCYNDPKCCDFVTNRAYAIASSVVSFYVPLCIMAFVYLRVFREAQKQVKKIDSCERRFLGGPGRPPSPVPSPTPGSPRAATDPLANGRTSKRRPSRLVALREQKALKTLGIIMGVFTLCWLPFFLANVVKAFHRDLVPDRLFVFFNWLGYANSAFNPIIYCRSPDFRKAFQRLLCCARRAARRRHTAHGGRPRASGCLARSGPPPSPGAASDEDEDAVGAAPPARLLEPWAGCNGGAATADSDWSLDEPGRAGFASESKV
T1 sequence (B0FL73 whole entry): as the sequence (B0FL73 1-467) above

Row | EC50 [1] | EC50 [2] | Intrinsic activity [3] | pKB [4] | pKB [5] | SMILES | Potency ratio (Homo sapiens) | Potency ratio (Rattus norvegicus) | Ki [6] | Ki [7] | pKB [8]
1 | 2950 nM | 1170 nM | 0.81 | 4.84 | – | COc1cc(CC2NCCc3cc(O)c(O)c(I)c32)cc(OC)c1OC (configuration not stated) | 0.09 | 0.24 | – | – | –
2 | – | – | – | 3.7 | 5.32 | COc1cc(CC2NCCc3c2cc(O)c(O)c3C(F)(F)F)cc(OC)c1OC (configuration not stated) | 0.000525 | 0.00372 | – | – | –
3 | > 31600 nM | 2240 nM | 0.39 | 4.31 | – | COc1cc(CC2NCCc3c2cc(O)c(O)c3I)cc(OC)c1OC (configuration not stated) | 0.002 | 0.07 | – | – | –
4 | 501 nM | 240 nM | – | 3.98 | – | COc1cc(CC2NCCc3c(F)c(O)c(O)c(F)c32)cc(OC)c1OC (configuration not stated) | 0.00277 | 0.00708 | – | – | –
5 | – | – | – | – | – | COc1cc(C[C@H]2NCCc3cc(O)c(O)c(F)c32)cc(OC)c1OC | – | – | – | – | 5.63

Row | SMILES | EC50 [1] | EC50 [2] | Intrinsic activity [3] | pKB [4] | pKB [5] | Potency ratio (Homo sapiens) | Potency ratio (Rattus norvegicus) | Ki [6] | Ki [7] | pKB [8]
6 | COc1cc(C[C@@H]2NCCc3cc(O)c(O)cc32)cc(OC)c1OC [TRETOQUINOL] | 174 nM | 26.3 nM | – | – | – | – | – | 87.1 nM | 49 nM | 5.46
